From patent publication US20140256756A1, “PIPERIDINYL-SUBSTITUTED LACTAMS AS GPR119 MODULATORS” (Array BioPharma Inc., priority 2011, published 2014)
Where a name gives a salt, the structure may show the parent alone.

Tested on: modified version of the GPR119 receptor (94% identity to human receptor)
Assay: cAMP production assay (LANCE cAMP kit, TR-FRET) in HEK-293 cells
Assay type: cell-based
Details: for cAMP production in HEK-293 cells: HEK-293 cells stably expressing modified GPR119, test compounds 0.2 nM to 10 μM, one-hour incubation; for Fold over baseline: increase in cAMP relative to basal levels, agonist activity if 1.5-fold or greater
Method: The assay utilized HEK-293 cells that stably express a modified version of the GPR119 receptor (94% identity to human receptor), under the control of a CMV promoter containing a tet-on element for tetracycline-inducible expression. GPR119 agonist-induced cyclic AMP (cAMP) production was measured in this cell line using the LANCE cAMP kit (Perkin Elmer, Waltham, Mass.). To generate a working stock of cells for the assay, cells were treated overnight with 1 μg/mL doxycycline at 37° C. in the presence of 5% CO2 to induce receptor expression. Cells were then harvested by enzymatic dissociation with 0.05% trypsin, resuspended in freezing medium (DMEM growth medium with 10% each of fetal bovine serum and DMSO), aliquoted and frozen at −80° C. On the day of the assay, frozen cells were thawed, washed 1× in PBS and resuspended in Hank's buffered salt solution (HBSS) containing 5 mM HEPES, 0.1% BSA and Alexa Fluor 647-conjugated anti-cAMP antibody (diluted 1:100). The cell suspension was then transferred to a Proxiplate Plus white 384-well assay plate (Perkin-Elmer) at 2000 cells/well. Test compounds at final concentrations ranging from 0.2 nM to 10 μM were added to the assay plate, followed by a one-hour incubation at ambient temperature (volume=10 μL/well). DMSO concentration was held constant at 0.5%. After incubation with test compounds, 10 μL, of a detergent buffer containing a biotinylated cAMP/Europium-conjugated streptavidin complex (Europium-labeled cAMP tracer) were added to each well on the assay plate, followed by a 2-hour incubation at ambient temperature. During this incubation cAMP released from lysed cells competes with the Europium-labeled cAMP tracer for binding to the Alexa Fluor 647-conjugated antibody. […] Cellular cAMP levels were then determined by interpolation of raw signal data using a cAMP standard curve. Compounds were determined to have agonist activity if they stimulated a 1.5-fold or greater increase in cAMP relative to basal levels.

Row | Structure (SMILES) | cAMP production in HEK-293 cells [nmol] | Fold over baseline
1 | CC(C)c1nsc(N2CCC(N3CCC(Oc4ccc(S(C)(=O)=O)cc4)C3=O)CC2)n1 (stereo not drawn) [Example 65, -(1-(3-Isopropyl-1,2,4-thiadiazol-5-yl)piperidin-4-yl)-3-(4-(methylsulfonyl)phenoxy)pyrrolidin-2-one] | 22.1 | 4.1
2 | CC(C)c1nsc(N2CCC(N3CCC(Oc4ccc(C(=O)NCCN(C)C)cc4F)C3=O)CC2)n1 (stereo not drawn) [Example 81, N-(2-(dimethylamino)ethyl)-3 fluoro-4-(1-(1-(3-isopropyl-1,2,4-thiadiazol-5-yl)piperidin-4-yl)-2-oxopyrrolidin-3-yloxy)benzamide] | 11.7 | 2.4
3 | CC(C)c1nsc(N2CCC(N3CC[C@H](Nc4ccc(S(C)(=O)=O)cc4F)C3=O)CC2)n1 [Example 1, (S)-3-(2-fluoro-4-(methylsulfonyl)phenylamino)-1-(1-(3-isopropyl-1,2,4-thiadiazol-5-yl)piperidin-4-yl)pyrrolidin-2-one] | 21.6 | 3.3
4 | CC(C)(C)n1nnc(N2CCC(N3CC[C@H](Oc4ccc(S(C)(=O)=O)cc4F)C3=O)CC2)n1 [Example 95, (S)-1-(1-(2-(tert-butyl)2H-tetrazol-5-yl)piperidin-4-yl)-3-(2-fluoro-4-(methylsulfonyl)phenoxy)pyrrolidin-2-one] | 16.7 | 3.4
5 | CC(C)c1nsc(N2CCC(N3CCC(Oc4ccc(-n5cnnn5)cc4)C3=O)CC2)n1 (stereo not drawn) [Example 84, 3-(4-(1H-tetrazol-1-yl)phenoxy)-1-(1-(3-isopropyl-1,2,4-thiadiazol-5-yl)piperidin-4-yl)pyrrolidin-2-one] | 18.8 | 4.2
6 | CC(C)Cc1nsc(N2CCC(N3CCC[C@H](Nc4ccc(S(C)(=O)=O)cc4F)C3=O)CC2)n1 [Example 28, (S)-3-(2-fluoro-4-(methylsulfonyl)phenylamino)-1′-(3-isobutyl-1,2,4-thiadiazol-5-yl)-[1,4′-bipiperidin]-2-one] | 11.6 | 2.3
7 | CS(=O)(=O)c1cc(F)c(N[C@H]2CCN(C3CCN(c4nc(C(F)(F)F)ns4)CC3)C2=O)c(F)c1 [Example 88, (S)-3-(2,6-difluoro-4-(methylsulfonyl)phenylamino)-1-(1-(3-(trifluoromethyl)-1,2,4-thiadiazol-5-yl)piperidin-4-yl)pyrrolidin-2-one] | 11.8 | 3.0
8 | CC(C)c1nsc(N2CCC(N3CCC(Oc4ccc(Br)cc4F)C3=O)CC2)n1 (stereo not drawn) [Example 33, 3-(4-bromo-2-fluorophenoxy)-1-(1-(3-isopropyl-1,2,4-thiadiazol-5-yl)piperidin-4-yl)pyrrolidin-2-one] | 16.9 | 2.7
9 | COC(C)(C)c1nsc(N2CCC(N3CC[C@H](Oc4cc(F)c(S(C)(=O)=O)cc4F)C3=O)CC2)n1 [Example 39, (S)-3-(2,5-difluoro-4-(methylsulfonyl)phenoxy)-1-(1-(3-(2-methoxypropan-2-yl)-1,2,4-thiadiazol-5-yl)piperidin-4-yl)pyrrolidin-2-one] | 22.4 | 3.7
10 | CCS(=O)(=O)c1ccc(N[C@H]2CCN(C3CCN(c4nc(C(C)C)ns4)CC3)C2=O)c(F)c1 [Example 3, (S)-3-(4-(ethylsulfonyl)-2-fluorophenylamino)-1-(1-(3-isopropyl-1,2,4-thiadiazol-5-yl)piperidin-4-yl)pyrrolidin-2-one] | 25.3 | 5.4
11 | CN(C)c1nsc(N2CCC(N3CC[C@H](Oc4cc(F)c(S(C)(=O)=O)cc4F)C3=O)CC2)n1 [Example 55, (S)-3-(2,5-difluoro-4-(methylsulfonyl)phenoxy)-1-(1-(3-(dimethylamino)-1,2,4-thiadiazol-5-yl)piperidin-4-yl)pyrrolidin-2-one] | 17.2 | 3.8
12 | CC(C)c1nsc(N2CCC(N3CCC(Oc4ccc(C(=O)NCCO)cc4F)C3=O)CC2)n1.Cl (stereo not drawn) [Example 77, 3-Fluoro-N-(2-hydroxyethyl)-4-(1-(1-(3-isopropyl-1,2,4-thiadiazol-5-yl)piperidin-4-yl)-2-oxopyrrolidin-3-yloxy)benzamide hydrochloride] | 15.1 | 2.8
13 | CC1(c2nsc(N3CCC(N4CC[C@H](Oc5ccc(S(C)(=O)=O)cc5F)C4=O)CC3)n2)CCOCC1 [Example 60, (S)-3-(2-fluoro-4-(methylsulfonyl)phenoxy)-1-(1-(3-(4-methyltetrahydro-2H-pyran-4-yl)-1,2,4-thiadiazol-5-yl)piperidin-4-yl)pyrrolidin-2-one] | 13.2 | 4.5
14 | Cc1nnc(-c2ccc(O[C@H]3CCN(C4CCN(c5nc(C(C)C)ns5)CC4)C3=O)c(F)c2)o1 [Example 43, (S)-3-(2-fluoro-4-(5-methyl-1,3,4-oxadiazol-2-yl)phenoxy)-1-(1-(3-isopropyl-1,2,4-thiadiazol-5-yl)piperidin-4-yl)pyrrolidin-2-one] | 29.4 | 7.4
15 | CC(C)(C)c1nsc(N2CCC(N3CC[C@H](Nc4ccc(S(C)(=O)=O)cc4F)C3=O)CC2)n1 [Example 37, (S)-1-(1-(3-tert-butyl-1,2,4-thiadiazol-5-yl)piperidin-4-yl)-3-(2-fluoro-4-(methylsulfonyl)phenyl-amino)pyrrolidin-2-one] | 20.9 | 3.2
16 | CC(C)c1nsc(N2CCC(N3CC[C@H](N(C)c4cc(F)c(S(C)(=O)=O)cc4F)C3=O)CC2)n1 [Example 26, (S)-3-((2,5-Difluoro-4-(methylsulfonyl)phenyl)(methyl)amino)-1-(1-(3-isopropyl-1,2,4-thiadiazol-5-yl)piperidin-4-yl)pyrrolidin-2-one] | 17.2 | 3.9
17 | CC(C)c1nsc(N2CCC(N3CCC(Oc4ccc(C#N)cc4F)C3=O)CC2)n1 (stereo not drawn) [Example 63, 3-Fluoro-4-(1-(1-(3-isopropyl-1,2,4-thiadiazol-5-yl)piperidin-4-yl)-2-oxopyrrolidin-3-yloxy)benzonitrile] | 7.4 | 2.7
18 | Cc1ncccc1Oc1nsc(N2CCC(N3CC[C@H](Oc4ccc(S(C)(=O)=O)cc4F)C3=O)CC2)n1 [Example 76, (S)-3-(2-fluoro-4-(methylsulfonyl)phenoxy)-1-(1-(3-(2-methylpyridin-3-yloxy)-1,2,4-thiadiazol-5-yl)piperidin-4-yl)pyrrolidin-2-one] | 5.7 | 2.5
19 | CC(C)c1nsc(N2CCC(N3CC[C@H](Nc4ccc(S(=O)(=O)C5CC5)cc4F)C3=O)CC2)n1 [Example 4, (S)-3-(4-(cyclopropylsulfonyl)-2-fluorophenylamino)-1-(1-(3-isopropyl-1,2,4-thiadiazol-5-yl)piperidin-4-yl)pyrrolidin-2-one] | 24.2 | 4.3
20 | CC(C)c1nsc(N2CCC(N3CCC(Oc4ccc(S(=O)(=O)CC5CC5)cc4F)C3=O)CC2)n1 (stereo not drawn) [Example 44, 3-(4-(Cyclopropylmethylsulfonyl)-2-fluorophenoxy)-1-(1-(3-isopropyl-1,2,4-thiadiazol-5-yl)piperidin-4-yl)pyrrolidin-2-one trifluoroacetate] | 23.8 | 3.4
21 | CC(C)c1nsc(N2CCC(N3CC[C@H](Nc4ccc(S(C)(=O)=O)cn4)C3=O)CC2)n1 [Example 16, (S)-1-(1-(3-isopropyl-1,2,4-thiadiazol-5-yl)piperidin-4-yl)-3-(5-(methylsulfonyl)pyridin-2-ylamino)pyrrolidin-2-one] | 27.2 | 3.7
22 | CC(C)(C)c1nsc(N2CCC(N3CCC[C@H](Nc4c(F)cc(S(C)(=O)=O)cc4F)C3=O)CC2)n1 [Example 31] | 7.6 | 1.9
23 | CS(=O)(=O)c1ccc(O[C@H]2CCN(C3CCN(c4nc(-n5cccn5)ns4)CC3)C2=O)c(F)c1 [Example 42, (S)-1-(1-(3-(1H-pyrazol-1-yl)-1,2,4-thiadiazol-5-yl)piperidin-4-yl)-3-(2-fluoro-4-(methylsulfonyl)phenoxy)pyrrolidin-2-one] | 12.0 | 2.5
24 | CS(=O)(=O)c1ccc(O[C@H]2CCN(C3CCN(c4nc(C5CCOCC5)ns4)CC3)C2=O)c(F)c1 [Example 59, (S)-3-(2-fluoro-4-(methylsulfonyl)phenoxy)-1-(1-(3-(tetrahydro-2H-pyran-4-yl)-1,2,4-thiadiazol-5-yl)piperidin-4-yl)pyrrolidin-2-one] | 28.3 | 4.2
